Source: publication PMC9598561, “Antileishmanial Activity of 4,8-Dimethoxynaphthalenyl Chalcones on Leishmania amazonensis” (Antibiotics, 2022)

Columns and labels:
[1] = system: L. amazonensis promastigotes; experiment: Antipromastigote activity, MTT assay; type: cell-based, Leishmania amazonensis; conditions: for SI = selectivity index (CC50/IC50): CC50 macrophages / IC50 promastigotes; for IC50: Leishmania amazonensis, L. amazonensis promastigotes, 24 h, MTT, IC50 ± SEM
Procedure: The promastigote forms of L. amazonensis (MHOM/BR/1989/166MJO) were maintained in culture medium 199 (GIBCO, Invitrogen, New York, NY, USA) pH 7.18–7.22 supplemented with 10% fetal bovine serum (FBS) (GIBCO, Invitrogen, New York, NY, USA), 1M HEPES buffer, 1% human urine, 1% L-glutamine, 10 µg/mL streptomycin and 10 U/mL penicillin (GIBCO, Invitrogen, NY, USA) and 10% sodium bicarbonate. The parasite culture was maintained in a B.O.D. incubator at 24 °C in 25 cm^2 culture flasks. In all experiments, promastigote forms in the stationary growth phase were used (5-day culture).
The activities were evaluated by the 3-(4,5-dimethylthiazol-2-yl)-2,5-diphenyltetrazolium bromide (MTT) assay. L. amazonensis promastigote forms (10^6 cells/mL) were placed in 96-well plates and treated with the chalcone derivatives (4a–i) at different concentrations (10, 25, 50, and 130 µM) and maintained in a B.O.D incubator for 24 h at 24 °C. A solution of MTT (10 μL of a 5 mg/mL stock) (Sigma-Aldrich, St. Louis, MO, USA) was added to each well, and after 4 h, the plates were evaluated at λ = 550 nm using a spectrophotometer (Thermo Fisher Scientific, Multiskan GO, Waltham, MA, USA). L. amazonensis promastigotes maintained in culture M199 medium without treatment or with 0.01% DMSO (Sigma-Aldrich, St. Louis, MO, USA) served as negative and vehicle controls. 1 μM amphotericin B (AmB) (Sigma-Aldrich, St. Louis, MO, USA) was used as a positive control. The results of antipromastigote activities were expressed as half-maximal inhibitory concentrations for 50% of parasites (IC50) in μM. The IC50 values were calculated as the average of three independent experiments performed in duplicates.
(§1) The half-maximal inhibitory concentration for 50% of parasites (IC50) was determined on L. amazonensis promastigotes treated with the nine compounds, and the cytotoxic concentration that causes the death of 50% of cells (CC50) on murine macrophages (J774A.1). IC50 and CC50 were calculated by nonlinear regression using GraphPad Prism statistical software (GraphPad Software, Inc., USA, 500.288). The tested compounds’ selectivity index was expressed as SI = CC50 on […] macrophages/IC50 on promastigotes forms.

[2] = Cytotoxicity on murine macrophages, MTT assay; type: cell-based; conditions: mouse, J774A.1 macrophage cell line, J774A.1 macrophages, CC50 ± SEM
Procedure: The cytotoxic effect of compounds 4a–i on murine macrophage cell lines J774A.1 (TIB-67, ATCC, Manassas, VA, USA) was assessed using the MTT assay (3-(4,5-dimethylthiazol-2-yl)-2,5-diphenyltetrazolium bromide) (Sigma-Aldrich, St. Louis, MO, USA), [14]. Macrophages were seeded in 96-well plates at a density of 10^4 cells/well and were cultured with 4a–i at different concentrations (10, 25, 50, and 130 µM) for 24 h (37 °C, 5% CO2). The cells were washed, MTT (5 mg/mL) added, and the cells were incubated for 4 h. The MTT product was diluted with 100 μL of DMSO (Sigma-Aldrich, St. Louis, MO, USA) and analyzed at 550 nm in a spectrophotometer (Thermo Fisher Scientific, Multiskan GO, Waltham, MA, USA) at 550 nm. 0.5% H2O2 (Merck, Darmstadt, Germany) was used as a positive control. The results were expressed as the percentage of viable cells compared to the control group. The cytotoxic concentration for 50% of the cells (CC50) was calculated by nonlinear regression to the dose-response curve using GraphPad Prism statistical software (GraphPad Software, Inc., San Diego, CA, USA, 500.288).
as §1

[3] = system: L. amazonensis intracellular amastigotes; experiment: Antiamastigote assay in infected J774A.1 macrophages; type: cell-based, Leishmania amazonensis; conditions: 24 h; for reduction of infected macrophages: mean ± SEM
Procedure: Murine macrophages J774A.1 (5 × 10^5 cell/mL) were cultivated in 24-well plates. After infection, the non-internalized promastigotes were removed by washing with PBS, and the adherent macrophages infected were treated with the most promising chalcone (4f) in non-cytotoxic concentrations (10, 25, 50, and 130 μM) for 24 h (37 °C, 5% CO2). RPMI 1640 medium, DMSO (0.01%), and AmB (1 μM) were used as a negative control, vehicle, and positive control, respectively. Then, cells were stained with Leishman (Laborclin, Pinhais, Brazil), and 20 fields were analyzed by increased immersion (1000× magnification) using an optical microscope (Olympus BX41, Olympus Optical Co., Ltd., Tokyo, Japan) to determine the % of infected macrophages and the number of amastigotes/cells.

[4] = system: L. amazonensis promastigotes; experiment: ROS generation in promastigotes (H2DCFDA probe); type: cell-based, Leishmania amazonensis; conditions: 3.3 μM and 6.6 μM, 24 h
Procedure: As a positive control, hydrogen peroxide (0.4% H2O2) was used, and the vehicle (DMSO 0.01%) was used for a negative control. ROS was measured as an increase in fluorescence caused by converting the non-fluorescent dye to the fluorescent 2.7-dichlorofluorescein, with an excitation wavelength of 488 nm and emission of 530 nm in a fluorescence microplate reader (Victor X3, PerkinElmer, Turku, Finland).

[5] = system: L. amazonensis promastigotes; experiment: Mitochondrial membrane potential (TMRE); type: cell-based, Leishmania amazonensis; conditions: 3.3 μM and 6.6 μM, 24 h
Procedure: To evaluate if the most promising chalcone (4f) alters the mitochondrial membrane potential, we conducted an assay using a tetramethylrhodamine ethyl ester (TMRE) staining (Sigma-Aldrich, St. Louis, MO, USA). […] Carbonyl cyanide m-chlorophenylhydrazone (100 μM) (CCCP) (Sigma-Aldrich, St. Louis, MO, USA) was used as a positive control, and the vehicle (DMSO 0.01%) was used as a negative control.

[6] = system: L. amazonensis promastigotes; experiment: SEM and TEM morphological and ultrastructural analysis; type: cell-based, Leishmania amazonensis; conditions: 3.3 μM and 6.6 μM, 24 h
Procedure: SEM was performed to analyze morphological changes in the cell surface topography. […] After the treatment, the parasites were fixed in 2.5% glutaraldehyde (Merck, Darmstadt, Germany) in 0.1 M sodium cacodylate buffer (Sigma-Aldrich, St. Louis, MO, USA) and adhered to coverslips covered with poly-L-lysine (Sigma-Aldrich, St. Louis, MO, USA) for 60 min. Parasites were dehydrated with increasing ethanol (Synth, Diadema, Brazil) concentrations (30–100%), submitted to critical point drying (Baltec SCD-030), metalized with gold, and visualized on a high-resolution double beam electron microscope FEI SCIOS.
To evaluate the ultrastructural changes by TEM, promastigotes were treated and fixed as described above. After the samples were post-fixed with 1% OsO4 (Sigma-Aldrich, St. Louis, MO, USA), 0.8% potassium ferrocyanide (Sigma-Aldrich, St. Louis, MO, USA), and 10.0 mM CaCl2 (Synth, Diadema, Brazil) in 0.1 M sodium cacodylate buffer for 1 h at room temperature and protected from light. Samples were washed in 0.1 M sodium cacodylate buffer, dehydrated in increased concentration of acetone (Synth, Diadema, Brazil) (50–100%), including in EPON resin, and polymerized at 60 °C for 72 h. […]

SMILES | SI = selectivity index (CC50/IC50) [1] | IC50 [1] [µM] | CC50 at 24 h [2] [µM] | other results
C[C@@H]1[C@H](O)[C@@H](C)/C=C/C=C/C=C/C=C/C=C/C=C/C=C/[C@H](O[C@@H]2O[C@H](C)[C@@H](O)[C@H](N)[C@@H]2O)C[C@@H]2O[C@](O)(C[C@@H](O)C[C@@H](O)[C@H](O)CC[C@@H](O)C[C@@H](O)CC(=O)O[C@H]1C)C[C@H](O)[C@H]2C(=O)O [AmB, Amphotericin B, reference compound] | 73.17 | 0.68 ± 0.21 | 49.7 | reduction in the percentage of infected macrophages ([3]; 1 μM, positive control): 95.25 ± 0.65%; reduction of number of amastigotes per macrophage ([3]; 1 μM, positive control): 89.55 ± 0.05%
COc1ccc(/C=C/C(=O)c2ccc(OC)c3cccc(OC)c23)cc1 [Compound 4a, (E)-1-(4,8-dimethoxynaphthalen-1-yl)-3-(4-methoxyphenyl)prop-2-en-1-one] | 1.7 | 264.1 ± 0.12 | 414.8 ± 0.04 | –
COc1cccc(/C=C/C(=O)c2ccc(OC)c3cccc(OC)c23)c1 [Compound 4b, (E)-1-(4,8-dimethoxynaphthalen-1-yl)-3-(3-methoxyphenyl)prop-2-en-1-one] | 3.7 | 67.1 ± 0.16 | 246.7 ± 0.03 | –
COc1ccc(C(=O)/C=C/c2ccc(Cl)c(Cl)c2)c2c(OC)cccc12 [Compound 4c, (E)-3-(3,4-dichlorophenyl)-1-(4,8-dimethoxynaphthalen-1-yl)prop-2-en-1-one] | 14.5 | 13.4 ± 0.08 | 194.3 ± 0.06 | –
COc1ccc(C(=O)/C=C/c2c(Cl)cccc2Cl)c2c(OC)cccc12 [Compound 4d, (E)-3-(2,6-dichlorophenyl)-1-(4,8-dimethoxynaphthalen-1-yl)prop-2-en-1-one] | – | 94.1 ± 0.06 | 126.8 ± 0.09 | –
COc1ccc(C(=O)/C=C/c2ccc(Cl)cc2Cl)c2c(OC)cccc12 [Compound 4e, (E)-3-(2,4-dichlorophenyl)-1-(4,8-dimethoxynaphthalen-1-yl)prop-2-en-1-one] | – | 37.7 ± 0.06 | 561.1 ± 0.03 | –
COc1ccc(C(=O)/C=C/c2ccc([N+](=O)[O-])cc2)c2c(OC)cccc12 [Compound 4f, (E)-1-(4,8-dimethoxynaphthalen-1-yl)-3-(4-nitrophenyl)prop-2-en-1-one] | 112.6 | 3.3 ± 0.34 | 372.9 ± 0.04 | reduction of number of amastigotes per macrophage ([3]; 10 μM, compared to controls): 14.14 ± 0.04%; reduction of infected macrophages ([3]; 10 μM): 23.81 ± 1.07%; reduction of number of amastigotes per macrophage ([3]; 25 μM, compared to controls): 36.20 ± 0.02%; reduction of infected macrophages ([3]; 25 μM): 35.78 ± 1.59%; reduction of number of amastigotes per macrophage ([3]; 50 μM, compared to controls): 39.33 ± 0.03%; reduction of infected macrophages ([3]; 50 μM): 42.15 ± 0.49%; reduction of infected macrophages ([3]; 130 μM): 63.04 ± 0.35%; IC50 ([3]; Leishmania amazonensis, J774.A1, L. amazonensis-infected J774A.1 macrophages): 18.5 ± 1.19 µM; intracellular ROS levels (DCF fluorescence) [4]: substantial rise in the intracellular ROS levels; mitochondrial membrane potential (ΔΨm), TMRE [5]: reduces the potential of the mitochondrial membrane (ΔΨm); ultrastructural changes (TEM) [6]: an increase in autophagic vacuoles, lipid-storage bodies accumulation, mitochondrial swelling, and nuclear alterations
COc1ccc(C(=O)/C=C/c2cccc([N+](=O)[O-])c2)c2c(OC)cccc12 [Compound 4g, (E)-1-(4,8-dimethoxynaphthalen-1-yl)-3-(3-nitrophenyl)prop-2-en-1-one] | 23.2 | 14.5 ± 0.09 | 366 ± 0.13 | –
COc1ccc(C(=O)/C=C/c2ccccc2)c2c(OC)cccc12 [Compound 4h, (E)-1-(4,8-dimethoxynaphthalen-1-yl)-3-phenylprop-2-en-1-one] | 33.44 | 26.1 ± 0.09 | 872.3 ± 0.134 | –
COc1ccc(C(=O)/C=C/c2ccc(Br)cc2)c2c(OC)cccc12 [Compound 4i, (E)-3-(4-bromophenyl)-1-(4,8-dimethoxynaphthalen-1-yl)prop-2-en-1-one] | 17.8 | 24.3 ± 0.05 | 434 ± 0.05 | –
